Experimental data reported in patent publication US9321773B2, “Compounds” (Respivert Ltd, priority 2009, dated 2016).

What was measured:
[1] = tested on: PMA-differentiated U937 cells; assay: MTT Assay (cell viability); assay type: cell-based, Human; conditions: percentage loss of cell viability; for Cell Viability MTT Assay in D-U937 cells at 4 hr: 4 hr in 5% FCS; for Cell Viability MTT Assay in D-U937 cells at 24 hr: 24 hr in 10% FCS
Method in brief: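 Differentiated U937 cells treated with compound for 4 hr (5% FCS) or 24 hr (10% FCS), then given MTT for 1 hr; formazan dissolved in DMSO and absorbance read at 550 nm. Viability loss expressed as % versus 0.5% DMSO vehicle.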

[2] = tested on: H2O2 induced pAkt in D-U937 cells; assay: PI3Kδ Cell Based Assay (H2O2 induced pAkt); conditions: Homo sapiens, dU937; activity range; D-U937 cells; read-out: Cellular Activity IC50 values (H2O2 induced pAkt D-U937 Cells)
Method in brief: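 Read-out is the pAkt/total Akt signal ratio, measured with anti-pAkt and anti-pan-Akt antibodies after H2O2 stimulation. Cells were U937 monocytes given PMA (100 ng/mL) for 48 to 72 hr. IC50 values fitted from compound serial dilutions.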

recombinant PI3 kinase δ = recombinant PI3 kinase δ (Homo sapiens (Human), UniProt O00329); assay: Enzyme Inhibition Assay (HTRF PI3K enzyme assay, TR-FRET); assay type: biochemical; conditions: activity range; read-out: PI3 Kinase Inhibition IC50 values at stated Isozyme δ
Sequence of recombinant PI3 kinase δ (O00329 whole entry, the tested form may be a part): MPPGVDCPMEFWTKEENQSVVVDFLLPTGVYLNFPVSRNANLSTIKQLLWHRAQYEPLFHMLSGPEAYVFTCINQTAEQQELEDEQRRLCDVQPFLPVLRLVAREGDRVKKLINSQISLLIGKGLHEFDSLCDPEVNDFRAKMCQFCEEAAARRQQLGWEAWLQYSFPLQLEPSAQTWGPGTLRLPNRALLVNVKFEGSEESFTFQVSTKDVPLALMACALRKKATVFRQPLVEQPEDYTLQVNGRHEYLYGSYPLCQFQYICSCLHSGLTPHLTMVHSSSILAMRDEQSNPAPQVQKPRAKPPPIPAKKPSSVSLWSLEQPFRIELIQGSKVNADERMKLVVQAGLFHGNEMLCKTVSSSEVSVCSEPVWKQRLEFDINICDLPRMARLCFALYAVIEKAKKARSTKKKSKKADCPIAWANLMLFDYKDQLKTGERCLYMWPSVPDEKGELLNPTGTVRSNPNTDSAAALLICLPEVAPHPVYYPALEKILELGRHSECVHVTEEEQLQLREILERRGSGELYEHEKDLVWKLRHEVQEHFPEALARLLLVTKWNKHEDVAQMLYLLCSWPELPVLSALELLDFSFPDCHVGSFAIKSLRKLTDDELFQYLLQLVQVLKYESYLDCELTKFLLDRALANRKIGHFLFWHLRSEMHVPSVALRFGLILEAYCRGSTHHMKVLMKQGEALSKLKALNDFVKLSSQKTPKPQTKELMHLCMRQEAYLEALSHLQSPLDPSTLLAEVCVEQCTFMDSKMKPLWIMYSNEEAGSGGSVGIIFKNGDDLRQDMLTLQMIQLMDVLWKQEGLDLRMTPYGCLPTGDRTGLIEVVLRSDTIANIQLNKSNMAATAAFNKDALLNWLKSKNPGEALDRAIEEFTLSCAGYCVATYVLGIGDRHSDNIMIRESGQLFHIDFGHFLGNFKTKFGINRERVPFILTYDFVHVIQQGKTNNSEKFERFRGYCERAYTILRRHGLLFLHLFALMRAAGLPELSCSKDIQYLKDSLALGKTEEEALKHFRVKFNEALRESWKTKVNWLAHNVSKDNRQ
Sequence of recombinant PI3 kinase δ (P27986 whole entry partner, the tested form may be a part): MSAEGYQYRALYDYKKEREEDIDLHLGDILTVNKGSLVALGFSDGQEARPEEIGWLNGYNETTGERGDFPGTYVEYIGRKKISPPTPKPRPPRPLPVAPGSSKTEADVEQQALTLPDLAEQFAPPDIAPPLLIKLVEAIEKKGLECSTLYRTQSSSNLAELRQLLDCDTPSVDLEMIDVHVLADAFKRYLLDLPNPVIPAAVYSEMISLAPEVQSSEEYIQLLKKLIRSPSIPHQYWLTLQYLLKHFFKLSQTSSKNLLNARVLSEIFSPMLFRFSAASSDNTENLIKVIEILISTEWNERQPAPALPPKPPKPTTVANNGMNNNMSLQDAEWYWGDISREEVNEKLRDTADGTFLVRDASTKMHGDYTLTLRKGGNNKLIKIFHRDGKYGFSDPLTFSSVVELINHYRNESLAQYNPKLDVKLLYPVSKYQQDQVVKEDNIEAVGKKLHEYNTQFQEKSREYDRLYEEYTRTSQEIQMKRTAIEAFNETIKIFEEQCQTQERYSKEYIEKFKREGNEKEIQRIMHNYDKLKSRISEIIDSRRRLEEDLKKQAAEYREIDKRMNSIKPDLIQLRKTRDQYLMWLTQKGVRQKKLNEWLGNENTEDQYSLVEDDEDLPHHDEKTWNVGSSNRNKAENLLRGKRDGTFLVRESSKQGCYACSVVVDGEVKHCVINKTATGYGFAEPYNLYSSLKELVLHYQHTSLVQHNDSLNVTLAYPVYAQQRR
Method in brief: (§1)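 TR-FRET readout after 15-18 hr at RT with biotinylated PIP3, GST-tagged GRP1 PH domain and europium/APC fluorophores; product PIP3 displaces the tracer and lowers the signal. Beforehand, compound and PIP2 were reacted for 2 hr at RT with human recombinant PI3Kα, δ or γ.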

recombinant PI3 kinase γ = recombinant PI3 kinase γ (Homo sapiens (Human), UniProt P48736); assay: as above; assay type: biochemical; conditions: activity range; read-out: PI3 Kinase Inhibition IC50 values at stated Isozyme γ
Sequence of recombinant PI3 kinase γ (P48736 whole entry): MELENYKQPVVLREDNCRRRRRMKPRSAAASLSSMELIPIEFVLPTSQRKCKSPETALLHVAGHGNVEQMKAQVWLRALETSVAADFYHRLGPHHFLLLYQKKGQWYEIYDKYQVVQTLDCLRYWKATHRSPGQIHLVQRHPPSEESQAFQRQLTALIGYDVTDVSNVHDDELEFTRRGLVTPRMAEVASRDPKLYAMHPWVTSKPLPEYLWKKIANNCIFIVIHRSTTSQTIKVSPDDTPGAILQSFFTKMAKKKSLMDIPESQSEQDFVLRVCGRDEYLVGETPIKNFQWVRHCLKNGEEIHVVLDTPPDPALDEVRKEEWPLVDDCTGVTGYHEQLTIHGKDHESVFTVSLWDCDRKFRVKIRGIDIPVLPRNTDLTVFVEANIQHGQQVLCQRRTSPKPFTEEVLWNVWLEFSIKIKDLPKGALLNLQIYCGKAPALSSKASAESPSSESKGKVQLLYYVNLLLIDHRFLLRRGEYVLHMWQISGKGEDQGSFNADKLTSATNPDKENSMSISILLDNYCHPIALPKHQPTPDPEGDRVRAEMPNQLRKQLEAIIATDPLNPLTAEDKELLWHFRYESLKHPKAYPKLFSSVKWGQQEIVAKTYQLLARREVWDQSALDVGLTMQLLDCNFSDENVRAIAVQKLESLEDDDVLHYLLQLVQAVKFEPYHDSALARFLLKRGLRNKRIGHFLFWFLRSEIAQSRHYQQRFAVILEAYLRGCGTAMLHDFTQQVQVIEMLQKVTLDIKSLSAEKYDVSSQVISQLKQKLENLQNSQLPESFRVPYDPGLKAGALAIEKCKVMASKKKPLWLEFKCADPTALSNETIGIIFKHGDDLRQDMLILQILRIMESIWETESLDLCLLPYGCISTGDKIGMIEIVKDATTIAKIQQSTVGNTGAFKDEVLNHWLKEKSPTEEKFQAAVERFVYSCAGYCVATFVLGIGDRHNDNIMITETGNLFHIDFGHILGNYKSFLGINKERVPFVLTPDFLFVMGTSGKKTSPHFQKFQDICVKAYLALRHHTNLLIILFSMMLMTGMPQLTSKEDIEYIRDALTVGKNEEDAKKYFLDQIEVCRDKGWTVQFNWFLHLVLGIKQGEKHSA
Method in brief: as §1

recombinant PI3 kinase α = recombinant PI3 kinase α (Homo sapiens (Human), UniProt P42336); assay: as above; assay type: biochemical; conditions: activity range; read-out: PI3 Kinase Inhibition IC50 values at stated Isozyme α
Sequence of recombinant PI3 kinase α (P42336 whole entry): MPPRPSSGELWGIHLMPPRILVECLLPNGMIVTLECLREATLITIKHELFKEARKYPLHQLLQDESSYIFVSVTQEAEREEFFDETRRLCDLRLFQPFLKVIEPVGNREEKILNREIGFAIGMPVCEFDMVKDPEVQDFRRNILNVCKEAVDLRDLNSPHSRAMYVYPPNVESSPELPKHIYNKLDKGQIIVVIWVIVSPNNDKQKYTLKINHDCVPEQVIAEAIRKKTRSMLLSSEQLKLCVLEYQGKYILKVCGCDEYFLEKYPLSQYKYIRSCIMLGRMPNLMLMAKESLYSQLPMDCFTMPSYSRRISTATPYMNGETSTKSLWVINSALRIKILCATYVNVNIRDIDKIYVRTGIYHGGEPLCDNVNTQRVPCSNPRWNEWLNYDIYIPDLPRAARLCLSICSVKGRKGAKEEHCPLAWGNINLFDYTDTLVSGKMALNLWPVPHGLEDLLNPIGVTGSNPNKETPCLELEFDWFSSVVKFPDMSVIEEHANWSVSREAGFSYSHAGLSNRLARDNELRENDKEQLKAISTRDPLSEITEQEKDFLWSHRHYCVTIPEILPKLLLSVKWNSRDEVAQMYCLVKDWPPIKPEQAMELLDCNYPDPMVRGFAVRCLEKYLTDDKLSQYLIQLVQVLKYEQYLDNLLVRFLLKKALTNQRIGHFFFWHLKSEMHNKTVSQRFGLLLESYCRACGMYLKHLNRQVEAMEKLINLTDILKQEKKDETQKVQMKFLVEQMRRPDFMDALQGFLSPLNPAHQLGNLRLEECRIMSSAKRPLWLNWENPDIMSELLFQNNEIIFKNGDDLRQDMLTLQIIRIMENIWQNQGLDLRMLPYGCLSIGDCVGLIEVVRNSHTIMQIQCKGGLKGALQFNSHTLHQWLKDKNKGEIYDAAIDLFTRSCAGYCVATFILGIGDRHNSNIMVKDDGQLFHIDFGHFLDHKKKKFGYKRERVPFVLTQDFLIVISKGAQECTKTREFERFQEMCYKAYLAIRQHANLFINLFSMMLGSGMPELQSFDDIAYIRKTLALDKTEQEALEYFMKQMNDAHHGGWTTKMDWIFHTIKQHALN
Sequence of recombinant PI3 kinase α (P27986 whole entry partner): as the sequence (P27986 whole entry partner, the tested form may be a part) above
Method in brief: as §1

Row | SMILES | Cell Viability MTT Assay in D-U937 cells at 4 hr [1] | Cell Viability MTT Assay in D-U937 cells at 24 hr [1] | IC50 [2] [nM] | IC50 (recombinant PI3 kinase δ) [nM] | IC50 (recombinant PI3 kinase γ) [nM] | IC50 (recombinant PI3 kinase α) [nM]
1 | CCN(CC)C(=O)CCCC#Cc1cccc2nc(Cn3nc(-c4ccc(O)cc4)c4c(N)ncnc43)n(Cc3ccccc3Cl)c(=O)c12 [Example 59, 6-(2-((4-Amino-3-(4-hydroxyphenyl)-1H-pyrazolo[3,4-d]pyrimidin-1-yl)methyl)-3-(2-chlorobenzyl)-4-oxo-3,4-dihydroquinazolin-5-yl)-N,N-diethylhex-5-ynamide] | − (− <30%) | − (− <30%) | < 10 | < 50 | < 50 | 50 to 1000
2 | Nc1ncnc2c1c(-c1cccc(O)c1)nn2Cc1nc2cccc(C#CCCCCC(=O)O)c2c(=O)n1Cc1ccccc1Cl [Example 60, 7-(2-((4-Amino-3-(3-hydroxyphenyl)-1H-pyrazolo[3,4-d]pyrimidin-1-yl)methyl)-3-(2-chlorobenzyl)-4-oxo-3,4-dihydroquinazolin-5-yl)hept-6-ynoic acid] | − (− <30%) | − (− <30%) | < 10 | < 50 | < 50 | 50 to 1000
3 | COc1cc(Cn2c(Cn3nc(-c4ccc(O)cc4)c4c(N)ncnc43)nc3cccc(C#CCCCC(=O)N4CCOCC4)c3c2=O)cc(C(F)(F)F)c1 [Example 62, 2-((4-Amino-3-(4-hydroxyphenyl)-1H-pyrazolo[3,4-d]pyrimidin-1-yl)methyl)-3-(3-methoxy-5-(trifluoromethyl)benzyl)-5-(6-morpholino-6-oxohex-1-yn-1-yl)quinazolin-4(3H)-one] | − (− <30%) | − (− <30%) | < 10 | < 50 | < 50 | 50 to 1000
4 | Nc1ncnc2c1c(-c1ccc(O)cc1)nn2Cc1nc2cccc(C#CCCCC(=O)N3CCOCC3)c2c(=O)n1Cc1cc2ccccc2s1 [Example 63, 2-((4-Amino-3-(4-hydroxyphenyl)-1H-pyrazolo[3,4-d]pyrimidin-1-yl)methyl)-3-(benzo[b]thiophen-2-ylmethyl)-5-(6-morpholino-6-oxohex-1-yn-1-yl)quinazolin-4(3H)-one] | − (− <30%) | − (− <30%) | < 10 | < 50 | < 50 | 50 to 1000
5 | COc1cccc(Cn2c(Cn3nc(-c4ccc(O)cc4)c4c(N)ncnc43)nc3cccc(C#CCCCC(=O)N4CCOCC4)c3c2=O)c1F [Example 64, 2-((4-Amino-3-(4-hydroxyphenyl)-1H-pyrazolo[3,4-d]pyrimidin-1-yl)methyl)-3-(2-fluoro-3-methoxybenzyl)-5-(6-morpholino-6-oxohex-1-yn-1-yl)quinazolin-4(3H)-one] | − (− <30%) | − (− <30%) | < 10 | < 50 | < 50 | 50 to 1000
6 | COC(=O)c1cccc(Cn2c(Cn3nc(-c4cccc(O)c4)c4c(N)ncnc43)nc3cccc(C#CCCCC(=O)N4CCOCC4)c3c2=O)c1 [Example 65, Methyl 3-((2-((4-amino-3-(3-hyroxyphenyl)-1H-pyrazolo[3,4-d]pyrimidin-1-yl)methyl)-5-(6-morpholino-6-oxohex-1-yn-1-yl)-4-oxoquinazolin-3(4H)-yl)methyl)benzoate] | − (− <30%) | − (− <30%) | < 10 | < 50 | < 50 | 50 to 1000
7 | Cn1cc(Cn2c(Cn3nc(-c4cccc(O)c4)c4c(N)ncnc43)nc3cccc(C#CCCCC(=O)N4CCOCC4)c3c2=O)cn1 [Example 66] | − (− <30%) | + (+ >30%) | < 10 | < 50 | < 50 | 50 to 1000
8 | Nc1ncnc2c1c(-c1cccc(O)c1)nn2Cc1nc2cccc(C#CCCCC(=O)N3CCOCC3)c2c(=O)n1Cc1ccc2occc2c1 [Example 67, 2-((4-Amino-3-(3-hydroxyphenyl)-1H-pyrazolo[3,4-d]pyrimidin-1-yl)methyl)-3-(benzofuran-5-ylmethyl)-5-(6-morpholino-6-oxohex-1-yn-1-yl)quinazolin-4(3H)-one] | − (− <30%) | − (− <30%) | < 10 | < 50 | < 50 | 50 to 1000
9 | Cc1nc(Cn2c(Cn3nc(-c4cccc(O)c4)c4c(N)ncnc43)nc3cccc(C#CCCCC(=O)N4CCOCC4)c3c2=O)cs1 [Example 68, 2-((4-Amino-3-(3-hydroxyphenyl)-1H-pyrazolo[3,4-d]pyrimidin-1-yl)methyl)-3-((2-methylthiazol-4-yl)methyl)-5-(6-morpholino-6-oxohex-1-yn-1-yl)quinazolin-4(3H)-one] | − (− <30%) | − (− <30%) | < 10 | < 50 | < 50 | 50 to 1000
10 | CN1CCN(C(=O)CCCC#Cc2cccc3nc(Cn4nc(-c5cccc(O)c5)c5c(N)ncnc54)n(Cc4ccccc4Cl)c(=O)c23)CC1 [Example 69, 2-((4-Amino-3-(3-hydroxyphenyl)-1H-pyrazolo[3,4-d]pyrimidin-1-yl)methyl)-3-(2-chlorobenzyl)-5-(6-(4-methylpiperazin-1-yl)-6-oxohex-1-yn-1-yl)quinazolin-4(3H)-one] | + (+ >30%) | − (− <30%) | < 10 | < 50 | < 50 | 50 to 1000
11 | Nc1ncnc2c1c(-c1cccc(O)c1)nn2Cc1nc2cccc(C#CCCCC(=O)N3CCC(N4CCOCC4)CC3)c2c(=O)n1Cc1ccccc1Cl [Example 70, 2-((4-Amino-3-(3-hydroxyphenyl)-1H-pyrazolo[3,4-d]pyrimidin-1-yl)methyl)-3-(2-chlorobenzyl)-5-(6-(4-morpholinopiperidin-1-yl)-6-oxohex-1-yn-1-yl)quinazolin-4(3H)-one] | − (− <30%) | − (− <30%) | < 10 | < 50 | < 50 | 50 to 1000
12 | CC(=O)N1CCN(C(=O)CCCC#Cc2cccc3nc(Cn4nc(-c5ccc(O)cc5)c5c(N)ncnc54)n(Cc4ccccc4Cl)c(=O)c23)CC1 [Example 71] | − (− <30%) | − (− <30%) | < 10 | < 50 | < 50 | 50 to 1000
13 | Nc1ncnc2c1c(-c1cccc(O)c1)nn2Cc1nc2cccc(C#CCCNC(=O)N3CCOCC3)c2c(=O)n1Cc1ccccc1Cl [Example 72, N-(4-(2-((4-Amino-3-(3-hydroxyphenyl)-1H-pyrazolo[3,4-d]pyrimidin-1-yl)methyl)-3-(2-chlorobenzyl)-4-oxo-3,4-dihydroquinazolin-5-yl)but-3-yn-1-yl)morpholine-4-carboxamide] | − (− <30%) | − (− <30%) | < 10 | < 50 | < 50 | 50 to 1000
14 | COCCN(CCCC#Cc1cccc2nc(Cn3nc(-c4ccc(O)cc4)c4c(N)ncnc43)n(Cc3ccccc3Cl)c(=O)c12)CCOC [Example 73, 2-((4-Amino-3-(4-hydroxyphenyl)-1H-pyrazolo[3,4-d]pyrimidin-1-yl)methyl)-5-(5-(bis(2-methoxyethyl)amino)pent-1-ynyl)-3-(2-chlorobenzyl)quinazolin-4(3H)-one] | − (− <30%) | − (− <30%) | < 10 | < 50 | < 50 | 50 to 1000
15 | Nc1ncnc2c1c(-c1ccc(O)cc1)nn2Cc1nc2cccc(C#CCCCC(=O)NC3CCOCC3)c2c(=O)n1Cc1ccccc1Cl [Example 75, 6-(2-((4-Amino-3-(4-hydroxyphenyl)-1H-pyrazolo[3,4-d]pyrimidin-1-yl)methyl)-3-(2-chlorobenzyl)-4-oxo-3,4-dihydroquinazolin-5-yl)-N-(tetrahydro-2H-pyran-4-yl) hex-5-ynamide] | − (− <30%) | − (− <30%) | < 10 | < 50 | < 50 | 50 to 1000
16 | Nc1ncnc2c1c(-c1ccc(O)cc1)nn2Cc1nc2cccc(C#CCCCC(=O)NCCN3CCOCC3)c2c(=O)n1Cc1ccccc1Cl [Example 76, 6-(2-((4-Amino-3-(4-hydroxyphenyl)-1H-pyrazolo[3,4-d]pyrimidin-1-yl)methyl)-3-(2-chlorobenzyl)-4-oxo-3,4-dihydroquinazolin-5-yl)-N-(2-morpholinoethyl)hex-5-ynamide] | − (− <30%) | − (− <30%) | < 10 | < 50 | < 50 | 50 to 1000
